Measurements published in patent US6436448B1, “Method for the treatment of lymphedema using guaifenesin” (Sky BioHealth Solutions, Inc., priority 2001, dated 2002).

Key:
[1] = herbal medicines, background statement; cited from earlier work
[2] = Inventor's clinical observation of patients with lymphedema / fluid accumulation treated orally; assay type: in vivo
Excerpt: The inventor disagrees with the basic assumption and hypothesis on the inner working of guaifenesin. The inventor believes that guaifenesin's activity is its ability to break down undigested protein, and antigen-antibody complexed protein within the tissues and lymphatic nodes and vessels to reduce fluid accumulation and therefore reduce lymphedema. Guaifenesin is an expectorate and it thins out proteinaceous secretions from our lungs by directly and/or indirectly through stimulating macrophages to breaking the proteins into its amino acids components. The inventor believes that guaifenesin break down the proteins within the blood stream, tissues, and the lymphatic system. By maintaining a high level of guaifenesin within the blood stream, the “foreign” proteins within the tissue, antigen-antibody protein complexes within the lymph nodes will be broken down allowing the broken down amino acid particles to diffuse across the tissue into the lymphatic drainage. With this fluid switch from the lymphatic to the systemic circulation diuresis ensues without affecting the potassium metabolism within the kidney. The inventor has also observed lymphedema that occurs in non-fibromyalgia patients that responds well to guaifenesin therapy resulting in reduction of the swelling. […] These observations confirm the hypothesis that guaifenesin works on the “foreign” protein or antigen-antibodies protein complexes within the tissues and lymphatic system. With different size “foreign” protein and antigen-antibody protein complexes, guaifenesin's action on these proteins in various part of the body will proceed with different rate resulting in different rate of swelling reduction in different part of the bodies. Many of these patients, however, are diagnosed by a physician to have a cardiogenic etiology of edema and are typically treated with diuretics of various types. Cardiogenic edema should respond to a diuretic within […]. The inventor has observed patients being on diuretics for as long as a year with no results on the lymphedema. In testing this hypothesis, the inventor has used guaifenesin on over several hundred patients in varying dosages. […] Guaifenesin is also available in sustained-release version. The long-acting version is typically available at 600 mg and is designed to be taken two or three times a day. […] Other combinations of various dosage for ms may be used with various patients to improve results. […] While the inventor has only administered guaifenesin to patients orally, guaifenesin and its analogs can be formulated using known methods to prepare pharmaceutically useful compositions by combining guaifenesin with a pharmaceutically acceptable carriers and adapted to be administered by injection, transdermally, transmucosally or by any other means of drug delivery vehicle. Guafenesin may also be administered to a patient in a patch form or in a cream, ointment, or in a nasal or lung spray, or in a suppository.

| SMILES | swelling of lymphedema [1] | results with combination of short acting and long acting versions ([2]; combination of short acting and long acting versions) | painful and swollen lymph nodes ([2]; fibromyalgia patients on guaifenesin) | results with long-acting (sustained-release) version alone ([2]; long-acting version, typically 600 mg two or three times a day) | response of lymphedema (reduction of the swelling) ([2]; non-fibromyalgia patients, guaifenesin therapy) | accumulated fluid ([2]; over several hundred patients, oral, about 600 mg to about 4000 mg per day) |
| --- | --- | --- | --- | --- | --- | --- |
| O=c1ccc2ccccc2o1 [coumarin] | decrease some of the swelling associated with lymphedema | – | – | – | – | – |
| COc1ccccc1OCC(O)CO (stereo not drawn) [guaifenesin] | – | improves the results | reduction of the painful and swollen lymph nodes | may not work well in some patients | responds well | reduction of accumulated fluid |
